Data from ChEMBL document CHEMBL4138123, “Design, synthesis and biological evaluation of novel pyrazolochalcones as potential modulators of PI3K/Akt/mTOR pathway and inducers of apoptosis in breast cancer cells” (Eur J Med Chem, 2017).

Tests used:
A549 = test: Cytotoxicity against human A549/ATCC cells assessed as growth inhibition after 48 hrs by sulforhodamine B assay; type: functional; conditions: A549, 48 h
NCI-H522 = test: Cytotoxicity against human NCI-H522 cells assessed as growth inhibition after 48 hrs by sulforhodamine B assay; type: functional; conditions: NCI-H522, 48 h
COLO 205 [1] = test: Cytotoxicity against human COLO205 cells assessed as growth inhibition after 48 hrs by sulforhodamine B assay; type: functional; conditions: COLO 205, 48 h
UACC-257 = test: Cytotoxicity against human UACC257 cells assessed as growth inhibition after 48 hrs by sulforhodamine B assay; type: functional; conditions: UACC-257, 48 h
SK-OV-3 [2] = test: Cytotoxicity against human SKOV3 cells assessed as growth inhibition after 48 hrs by sulforhodamine B assay; type: functional; conditions: SK-OV-3, 48 h
MCF7 [3] = test: Cytotoxicity against human MCF7 cells assessed as growth inhibition after 48 hrs by MTT assay; type: functional, cell-based; conditions: MCF7, 48 h
Malme-3M [4] = test: Cytotoxicity against human MALME-3M cells assessed as cell growth at 0.01 uM after 48 hrs by sulforhodamine B assay relative to control; type: functional; conditions: read-out: Activity
U-251 = test: Cytotoxicity against human U251 cells assessed as cell growth at 0.01 uM after 48 hrs by sulforhodamine B assay relative to control; type: functional; conditions: U-251, 48 h, read-out: Activity
SNB-75 = test: Cytotoxicity against human SNB75 cells assessed as cell growth at 0.01 uM after 48 hrs by sulforhodamine B assay relative to control; type: functional; conditions: SNB-75, 48 h, read-out: Activity
KM12 [5] = test: Cytotoxicity against human KM12 cells assessed as cell growth at 0.01 uM after 48 hrs by sulforhodamine B assay relative to control; type: functional; conditions: KM12, 48 h, read-out: Activity
HCT-116 [6] = test: Cytotoxicity against human HCT116 cells assessed as cell growth at 0.1 uM after 48 hrs by sulforhodamine B assay relative to control; type: functional; conditions: HCT-116, 48 h, read-out: Activity
NCI/ADR-RES [7] = test: Cytotoxicity against human NCI/ADR-RES cells assessed as cell growth at 0.1 uM after 48 hrs by sulforhodamine B assay relative to control; type: functional; conditions: read-out: Activity
RXF 393 [8] = test: Cytotoxicity against human RXF393 cells assessed as cell growth at 0.1 uM after 48 hrs by sulforhodamine B assay relative to control; type: functional; conditions: RXF 393, 48 h, read-out: Activity
MDA-MB-468 [9] = test: Cytotoxicity against human MDA-MB-468 cells assessed as cell growth at 0.1 uM after 48 hrs by sulforhodamine B assay relative to control; type: functional; conditions: MDA-MB-468, 48 h, read-out: Activity
K562 = test: Cytotoxicity against human K562 cells assessed as cell growth at 1 uM after 48 hrs by sulforhodamine B assay relative to control; type: functional; conditions: K562, 48 h, read-out: Activity
HCT-116 [10] = test: Cytotoxicity against human HCT116 cells assessed as cell growth at 1 uM after 48 hrs by sulforhodamine B assay relative to control; type: functional; conditions: HCT-116, 48 h, read-out: Activity
KM12 [11] = test: Cytotoxicity against human KM12 cells assessed as cell growth at 1 uM after 48 hrs by sulforhodamine B assay relative to control; type: functional; conditions: KM12, 48 h, read-out: Activity
SNB-19 [12] = test: Cytotoxicity against human SNB19 cells assessed as cell growth at 1 uM after 48 hrs by sulforhodamine B assay relative to control; type: functional; conditions: SNB-19, 48 h, read-out: Activity
SK-OV-3 [13] = test: Cytotoxicity against human SKOV3 cells assessed as cell growth at 1 uM after 48 hrs by sulforhodamine B assay relative to control; type: functional; conditions: SK-OV-3, 48 h, read-out: Activity
BT-549 = test: Cytotoxicity against human BT549 cells assessed as cell growth at 1 uM after 48 hrs by sulforhodamine B assay relative to control; type: functional; conditions: BT-549, 48 h, read-out: Activity
COLO 205 [14] = test: Cytotoxicity against human COLO205 cells assessed as cell growth at 10 uM after 48 hrs by sulforhodamine B assay relative to control; type: functional; conditions: COLO 205, 48 h, read-out: Activity
LOX IMVI = test: Cytotoxicity against human LOXIMVI cells assessed as cell growth at 10 uM after 48 hrs by sulforhodamine B assay relative to control; type: functional; conditions: read-out: Activity
MDA-MB-435 = test: Cytotoxicity against human MDA-MB-435 cells assessed as cell growth at 10 uM after 48 hrs by sulforhodamine B assay relative to control; type: functional; conditions: MDA-MB-435, 48 h, read-out: Activity
SN12C = test: Cytotoxicity against human SN12C cells assessed as cell growth at 10 uM after 48 hrs by sulforhodamine B assay relative to control; type: functional; conditions: read-out: Activity
UO-31 = test: Cytotoxicity against human UO31 cells assessed as cell growth at 10 uM after 48 hrs by sulforhodamine B assay relative to control; type: functional; conditions: UO-31, 48 h, read-out: Activity
DU-145 = test: Cytotoxicity against human DU145 cells assessed as cell growth at 10 uM after 48 hrs by sulforhodamine B assay relative to control; type: functional; conditions: DU-145, 48 h, read-out: Activity
MCF7 [15] = test: Cytotoxicity against human MCF7 cells assessed as cell growth at 10 uM after 48 hrs by sulforhodamine B assay relative to control; type: functional; conditions: MCF7, 48 h, read-out: Activity
T47D = test: Cytotoxicity against human T47D cells assessed as cell growth at 10 uM after 48 hrs by sulforhodamine B assay relative to control; type: functional; conditions: read-out: Activity
MDA-MB-468 [16] = test: Cytotoxicity against human MDA-MB-468 cells assessed as cell growth at 10 uM after 48 hrs by sulforhodamine B assay relative to control; type: functional; conditions: MDA-MB-468, 48 h, read-out: Activity
RPMI-8226 = test: Cytotoxicity against human RPMI8226 cells assessed as cell growth at 100 uM after 48 hrs by sulforhodamine B assay relative to control; type: functional; conditions: RPMI-8226, 48 h, read-out: Activity
SR = test: Cytotoxicity against human SR cells assessed as cell growth at 100 uM after 48 hrs by sulforhodamine B assay relative to control; type: functional; conditions: read-out: Activity
NCI-H460 = test: Cytotoxicity against human NCI-H460 cells assessed as cell growth at 100 uM after 48 hrs by sulforhodamine B assay relative to control; type: functional; conditions: NCI-H460, 48 h, read-out: Activity
KM12 [17] = test: Cytotoxicity against human KM12 cells assessed as cell growth at 100 uM after 48 hrs by sulforhodamine B assay relative to control; type: functional; conditions: KM12, 48 h, read-out: Activity
SNB-19 [18] = test: Cytotoxicity against human SNB19 cells assessed as cell growth at 100 uM after 48 hrs by sulforhodamine B assay relative to control; type: functional; conditions: SNB-19, 48 h, read-out: Activity
Malme-3M [19] = test: Cytotoxicity against human MALME-3M cells assessed as cell growth at 100 uM after 48 hrs by sulforhodamine B assay relative to control; type: functional; conditions: read-out: Activity
NCI/ADR-RES [20] = test: Cytotoxicity against human NCI/ADR-RES cells assessed as cell growth at 100 uM after 48 hrs by sulforhodamine B assay relative to control; type: functional; conditions: read-out: Activity
RXF 393 [21] = test: Cytotoxicity against human RXF393 cells assessed as cell growth at 100 uM after 48 hrs by sulforhodamine B assay relative to control; type: functional; conditions: RXF 393, 48 h, read-out: Activity

SMILES: COc1ccc(-c2cc(/C=C/C(=O)c3cc(OC)c(OC)c(OC)c3)[nH]n2)cc1OC
- GI50 (A549): 2.39 µM
- LC50 (concentration giving 50% net cell kill) (A549): 62.4 µM
- TGI (A549): 9.34 µM
- GI50 (NCI-H522): 1.33 µM
- LC50 (NCI-H522): 5.39 µM
- TGI (NCI-H522): 2.68 µM
- GI50 (COLO 205 [1]): 1.75 µM
- LC50 (COLO 205 [1]): 7.28 µM
- TGI (COLO 205 [1]): 3.57 µM
- GI50 (UACC-257): 1.79 µM
- LC50 (UACC-257): 8.05 µM
- TGI (UACC-257): 3.8 µM
- GI50 (SK-OV-3 [2]): 5.47 µM
- LC50 (SK-OV-3 [2]): 45.5 µM
- TGI (SK-OV-3 [2]): 19 µM
- IC50 (MCF7 [3]): 1.1 µM
- growth at 0.01 µM (Malme-3M [4]): 98%
- growth at 0.01 µM (U-251): 99%
- growth at 0.01 µM (SNB-75): 88%
- growth at 0.01 µM (KM12 [5]): 99%
- growth at 0.1 µM (HCT-116 [6]): 88%
- growth at 0.1 µM (NCI/ADR-RES [7]): 97%
- growth at 0.1 µM (RXF 393 [8]): 102%
- growth at 0.1 µM (MDA-MB-468 [9]): 91%
- growth at 1 µM (K562): 43%
- growth at 1 µM (HCT-116 [10]): 27%
- growth at 1 µM (KM12 [11]): 45%
- growth at 1 µM (SNB-19 [12]): 77%
- growth at 1 µM (SK-OV-3 [13]): 87%
- growth at 1 µM (BT-549): 70%
- growth at 10 µM (COLO 205 [14]): -72%
- growth at 10 µM (LOX IMVI): -91%
- growth at 10 µM (MDA-MB-435): -55%
- growth at 10 µM (SN12C): -62%
- growth at 10 µM (UO-31): -95%
- growth at 10 µM (DU-145): -55%
- growth at 10 µM (MCF7 [15]): -81%
- growth at 10 µM (T47D): -37%
- growth at 10 µM (MDA-MB-468 [16]): -62%
- growth at 100 µM (RPMI-8226): -31%
- growth at 100 µM (SR): -14%
- growth at 100 µM (NCI-H460): -60%
- growth at 100 µM (KM12 [17]): -64%
- growth at 100 µM (SNB-19 [18]): -77%
- growth at 100 µM (Malme-3M [19]): -62%
- growth at 100 µM (NCI/ADR-RES [20]): -7%
- growth at 100 µM (RXF 393 [21]): -83%

SMILES: COc1ccc(C(=O)/C=C/c2cc(-c3ccc(OC)c(OC)c3)n[nH]2)cc1OC
- GI50 (A549): 2.25 µM
- TGI (A549): 10.2 µM
- GI50 (NCI-H522): 1.69 µM
- TGI (NCI-H522): 3.9 µM
- GI50 (COLO 205 [1]): 1.55 µM
- TGI (COLO 205 [1]): 3.1 µM
- GI50 (UACC-257): 2.16 µM
- TGI (UACC-257): 5.02 µM
- GI50 (SK-OV-3 [2]): 3.13 µM
- TGI (SK-OV-3 [2]): 33.3 µM
- IC50 (MCF7 [3]): 0.8 µM
- growth at 0.01 µM (Malme-3M [4]): 99%
- growth at 0.01 µM (U-251): 95%
- growth at 0.01 µM (SNB-75): 82%
- growth at 0.01 µM (KM12 [5]): 102%
- growth at 0.1 µM (HCT-116 [6]): 88%
- growth at 0.1 µM (NCI/ADR-RES [7]): 102%
- growth at 0.1 µM (RXF 393 [8]): 84%
- growth at 0.1 µM (MDA-MB-468 [9]): 80%
- growth at 1 µM (K562): 38%
- growth at 1 µM (HCT-116 [10]): 21%
- growth at 1 µM (KM12 [11]): 37%
- growth at 1 µM (SNB-19 [12]): 78%
- growth at 1 µM (SK-OV-3 [13]): 90%
- growth at 1 µM (BT-549): 75%
- growth at 10 µM (COLO 205 [14]): -84%
- growth at 10 µM (LOX IMVI): -89%
- growth at 10 µM (MDA-MB-435): -69%
- growth at 10 µM (SN12C): -40%
- growth at 10 µM (UO-31): -52%
- growth at 10 µM (DU-145): -34%
- growth at 10 µM (MCF7 [15]): -5%
- growth at 10 µM (T47D): -13%
- growth at 10 µM (MDA-MB-468 [16]): -80%
- growth at 100 µM (RPMI-8226): -38%
- growth at 100 µM (SR): -17%
- growth at 100 µM (NCI-H460): -42%
- growth at 100 µM (KM12 [17]): -74%
- growth at 100 µM (SNB-19 [18]): -36%
- growth at 100 µM (Malme-3M [19]): -11%
- growth at 100 µM (NCI/ADR-RES [20]): -15%
- growth at 100 µM (RXF 393 [21]): -90%
